Measured values published in patent US20250152592A1, “PHARMACEUTICAL COMPOSITION COMPRISING ALLOPURINOL, FEBUXOSTAT OR PHARMACEUTICALLY ACCEPTABLE SALT THEREOF FOR PREVENTION OR TREATMENT OF CHRONIC KIDNEY DISEASE IN SUBJECT HAVING HIGH SERUM URIC ACID CONCENTRATION” (Indream Healthcare Inc., priority 2022, published 2025).

How the values were obtained:
[1] = system: patients with gout and a history of major cardiovascular diseases; assay: clinical trial febuxostat vs allopurinol: serum uric acid, gout flare, treatment discontinuation; type: in vivo, human; conditions: overall, during the trial
Method: (§1) In order to evaluate non-inferiority of febuxostat to allopurinol related to cardiovascular risk, a clinical trial was designed and proceeded.
(§2) A multicenter, randomized, double-blind non-inferiority trial was performed. The details of the clinical trial design have been published previously. An independent data and safety monitoring committee with access to unblinded data monitored the clinical trial. The statistical analysis for the data and the safety monitoring committee was performed by an independent statistical group (WebbWrites).
(§3) The patients were regarded as having a history of major cardiovascular diseases, if they had myocardial infarction, hospitalization for unstable angina, stroke, hospitalization for transient ischemic attack, peripheral vascular disease, or diabetes mellitus symptoms. All participants provided a prior informed consent form.
(§4) The patients were randomly assigned so that they received febuxostat or allopurinol administered once a day in a double-blind manner. The randomization was stratified according to the estimated creatinine clearance at baseline (patient group having an estimated creatinine clearance ≥60 ml per minute vs patient group having an estimated creatinine clearance ≥30 and <60 ml per minute).
(§5) The dose of allopurinol was modified according to a kidney function. The patients with the estimated creatinine clearance 60 ml or more per minute i) initially received allopurinol at a dose of 300 mg once a day, and the dose was increased in 100 mg increments monthly until the patient had the serum uric acid concentration of less than 6.0 mg per deciliter or the dosage of allopurinol was 600 mg once a day. The patient having the estimated creatinine clearance of 30 ml or more and less than 60 ml per minute initially received 200 mg of allopurinol, and then the dose was increased in 100 mg increments until the patient either had the serum uric acid concentration of less than 6.0 mg per deciliter or was receiving the allopurinol dose of 400 mg once daily.
(§6) The dose of febuxostat was not modified according to the kidney function. The patients who were randomly assigned to receive febuxostat initially received 40 mg once a daily, and continued to receive the same dosage if the serum uric acid concentration was less than 6.0 mg per deciliter after 2 weeks of the treatment. If the serum uric acid concentration was higher than 6.0 mg per deciliter at 2nd week visit, the dose of febuxostat was increased to 80 mg once daily for the remainder of the trial.
(§7) During the period, the administration of a double-blind and double-dummy trial medications was guided by an interactive voice-response system which was a procedure to prevent unblinding for the patients whose dose was not adjusted. After completing dose adjustment, the urate level was concealed from the investigators, and the treatment was managed throughout the trial using the interactive voice-response system.
(§8) Outpatient visits were conducted according to the following schedule: during screening and randomization, and at 2, 4, 6, 8, 10, 12, and 24 weeks after the randomization, and every 6 months during the subsequent years of the trial. The patients with reduced kidney function or, the patients aged 65 years or older at randomization were visited at 9 and 15 months for monitoring the serum chemical profile. If the patient agreed to be monitored, but would not return for study visit, telephone contact was made, but such method was not preferred or recommended.

[2] = system: patients with gout and a history of major cardiovascular diseases; assay: eGFR over time by average serum uric acid concentration, analysis of clinical trial data; type: in vivo, human; conditions: allopurinol group
Method: as §1, §2, §3, §4, §5, §6, §7, §8
In order to confirm the effect of allopurinol and febuxostat on the kidney disease, the data obtained in the clinical trial described above was analyzed.

## Oc1ncnc2[nH]ncc12 [allopurinol]
[1]
  rate of gout flare: 0.63 per patient-year
[2]; Baseline blood glucose level ≥126, Average UA <6, Baseline
  eGFR Mean (95% CI): 63.77 (62.08-65.46) ml/min/1.73 m^2
[2]; Baseline blood glucose level ≥126, Average UA <6, Month 3
  eGFR Mean (95% CI): 63.92 (62.16-65.69) ml/min/1.73 m^2
[2]; Baseline blood glucose level ≥126, Average UA <6, Month 6
  eGFR Mean (95% CI): 63.77 (61.98-65.56) ml/min/1.73 m^2
[2]; Baseline blood glucose level ≥126, Average UA <6, Month 12
  eGFR Mean (95% CI): 64.33 (62.51-66.15) ml/min/1.73 m^2
[2]; Baseline blood glucose level ≥126, Average UA <6, Month 18
  eGFR Mean (95% CI): 64.04 (61.97-66.10) ml/min/1.73 m^2
[2]; Baseline blood glucose level ≥126, Average UA <6, Month 24
  eGFR Mean (95% CI): 64.60 (62.41-66.78) ml/min/1.73 m^2
[2]; Baseline blood glucose level ≥126, Average UA <6, Month 30
  eGFR Mean (95% CI): 63.32 (60.93-65.71) ml/min/1.73 m^2
[2]; Baseline blood glucose level ≥126, Average UA <6, Month 36
  eGFR Mean (95% CI): 63.57 (60.97-66.18) ml/min/1.73 m^2
[2]; Baseline blood glucose level ≥126, Average UA <6, Month 42
  eGFR Mean (95% CI): 62.14 (59.40-64.89) ml/min/1.73 m^2
[2]; Baseline blood glucose level ≥126, Average UA <6, Month 48
  eGFR Mean (95% CI): 64.42 (61.23-67.61) ml/min/1.73 m^2
[2]; Baseline blood glucose level ≥126, Average UA <6, Month 54
  eGFR Mean (95% CI): 64.35 (61.09-67.61) ml/min/1.73 m^2
[2]; Baseline blood glucose level ≥126, Average UA <6, Month 60
  eGFR Mean (95% CI): 64.49 (60.29-68.70) ml/min/1.73 m^2
[2]; Baseline blood glucose level ≥126, Average UA <6, Week 2
  eGFR Mean (95% CI): 63.46 (61.70-65.22) ml/min/1.73 m^2
[2]; Baseline blood glucose level ≥126, Average UA ≥6, Baseline
  eGFR Mean (95% CI): 62.56 (60.14-64.98) ml/min/1.73 m^2
[2]; Baseline blood glucose level ≥126, Average UA ≥6, Month 3
  eGFR Mean (95% CI): 62.44 (59.88-65.00) ml/min/1.73 m^2
[2]; Baseline blood glucose level ≥126, Average UA ≥6, Month 6
  eGFR Mean (95% CI): 61.37 (58.85-63.90) ml/min/1.73 m^2
[2]; Baseline blood glucose level ≥126, Average UA ≥6, Month 12
  eGFR Mean (95% CI): 62.57 (60.02-65.12) ml/min/1.73 m^2
[2]; Baseline blood glucose level ≥126, Average UA ≥6, Month 18
  eGFR Mean (95% CI): 60.70 (57.80-63.60) ml/min/1.73 m^2
[2]; Baseline blood glucose level ≥126, Average UA ≥6, Month 24
  eGFR Mean (95% CI): 60.72 (57.46-63.99) ml/min/1.73 m^2
[2]; Baseline blood glucose level ≥126, Average UA ≥6, Month 30
  eGFR Mean (95% CI): 60.06 (56.44-63.69) ml/min/1.73 m^2
[2]; Baseline blood glucose level ≥126, Average UA ≥6, Month 36
  eGFR Mean (95% CI): 59.78 (55.61-63.95) ml/min/1.73 m^2
[2]; Baseline blood glucose level ≥126, Average UA ≥6, Month 42
  eGFR Mean (95% CI): 57.66 (52.84-62.48) ml/min/1.73 m^2
[2]; Baseline blood glucose level ≥126, Average UA ≥6, Month 48
  eGFR Mean (95% CI): 56.80 (51.66-61.93) ml/min/1.73 m^2
[2]; Baseline blood glucose level ≥126, Average UA ≥6, Month 54
  eGFR Mean (95% CI): 57.15 (51.53-62.78) ml/min/1.73 m^2
[2]; Baseline blood glucose level ≥126, Average UA ≥6, Month 60
  eGFR Mean (95% CI): 54.70 (48.12-61.28) ml/min/1.73 m^2
[2]; Baseline blood glucose level ≥126, Average UA ≥6, Week 2
  eGFR Mean (95% CI): 62.27 (59.80-64.73) ml/min/1.73 m^2
[2]; DBP <80, Average UA <6, Baseline
  eGFR Mean (95% CI): 62.91 (61.68-64.15) ml/min/1.73 m^2
[2]; DBP <80, Average UA <6, Month 3
  eGFR Mean (95% CI): 63.26 (61.95-64.58) ml/min/1.73 m^2
[2]; DBP <80, Average UA <6, Month 6
  eGFR Mean (95% CI): 63.55 (62.23-64.87) ml/min/1.73 m^2
[2]; DBP <80, Average UA <6, Month 12
  eGFR Mean (95% CI): 64.71 (63.34-66.07) ml/min/1.73 m^2
[2]; DBP <80, Average UA <6, Month 18
  eGFR Mean (95% CI): 64.41 (62.91-65.90) ml/min/1.73 m^2
[2]; DBP <80, Average UA <6, Month 24
  eGFR Mean (95% CI): 64.00 (62.43-65.57) ml/min/1.73 m^2
[2]; DBP <80, Average UA <6, Month 30
  eGFR Mean (95% CI): 64.49 (62.77-66.21) ml/min/1.73 m^2
[2]; DBP <80, Average UA <6, Month 36
  eGFR Mean (95% CI): 63.61 (61.80-65.43) ml/min/1.73 m^2
[2]; DBP <80, Average UA <6, Month 42
  eGFR Mean (95% CI): 63.91 (61.95-65.87) ml/min/1.73 m^2
[2]; DBP <80, Average UA <6, Month 48
  eGFR Mean (95% CI): 64.88 (62.69-67.07) ml/min/1.73 m^2
[2]; DBP <80, Average UA <6, Month 54
  eGFR Mean (95% CI): 64.19 (61.76-66.62) ml/min/1.73 m^2
[2]; DBP <80, Average UA <6, Month 60
  eGFR Mean (95% CI): 64.73 (61.86-67.61) ml/min/1.73 m^2
[2]; DBP <80, Average UA <6, Week 2
  eGFR Mean (95% CI): 62.85 (61.57-64.14) ml/min/1.73 m^2
[2]; DBP <80, Average UA ≥6, Baseline
  eGFR Mean (95% CI): 60.15 (58.18-62.12) ml/min/1.73 m^2
[2]; DBP <80, Average UA ≥6, Month 3
  eGFR Mean (95% CI): 61.22 (59.20-63.24) ml/min/1.73 m^2
[2]; DBP <80, Average UA ≥6, Month 6
  eGFR Mean (95% CI): 61.19 (59.14-63.24) ml/min/1.73 m^2
[2]; DBP <80, Average UA ≥6, Month 12
  eGFR Mean (95% CI): 60.39 (58.37-62.42) ml/min/1.73 m^2
[2]; DBP <80, Average UA ≥6, Month 18
  eGFR Mean (95% CI): 60.06 (57.73-62.40) ml/min/1.73 m^2
[2]; DBP <80, Average UA ≥6, Month 24
  eGFR Mean (95% CI): 59.51 (56.88-62.15) ml/min/1.73 m^2
[2]; DBP <80, Average UA ≥6, Month 30
  eGFR Mean (95% CI): 59.37 (56.35-62.39) ml/min/1.73 m^2
[2]; DBP <80, Average UA ≥6, Month 36
  eGFR Mean (95% CI): 58.89 (55.43-62.34) ml/min/1.73 m^2
[2]; DBP <80, Average UA ≥6, Month 42
  eGFR Mean (95% CI): 57.48 (53.76-61.19) ml/min/1.73 m^2
[2]; DBP <80, Average UA ≥6, Month 48
  eGFR Mean (95% CI): 59.25 (55.00-63.51) ml/min/1.73 m^2
[2]; DBP <80, Average UA ≥6, Month 54
  eGFR Mean (95% CI): 58.18 (53.60-62.76) ml/min/1.73 m^2
